Data as given in patent publication US10906169B1, “Muscle-powered biological machines” (The Board of Trustees of the University of Illinois, priority 2016, dated 2021).
Entries after “also recorded” stand apart in the source; their conditions may differ.

Columns and labels:
[1] = test system: MNs in multi-layered tissue rings; assay: Chemical stimulation of motor neurons in multi-layered tissue rings (muscle contraction tracked by video); format: cell-based, mouse; details: for frequency of muscle twitching / average displacement: day 9 after co-culture; for effect on glutamate-induced muscle contractions: 25 μM curare added after glutamate stimulation
Protocol: To stimulate motor neurons in tissue rings, glutamate was added to cell culture medium in a bath application of either 200 μM or 400 μM, as noted. Tissues were then transferred to fresh medium. After chemical stimulation, the nicotinic AChR antagonist curare was added to cell culture medium in a bath application of 25 μM. Tissues were then rinsed in PBS and transferred to fresh medium.
Muscle contraction within tissue rings was captured using a digital camera on a stereomicroscope with a capture rate of 5-10 frames s^−1. Image sequences were exported to .avi files. A custom Matlab script was used to calculate x-y displacement of user-specified regions of interest using normalized 2D cross-correlation, as described previously^3.
On day 9 after co-culture, we chemically stimulated MNs by adding glutamate. Multi-layered tissue rings were first subjected to a bath application of 200 μM glutamate in complete neural differentiation medium. Through video recordings, we observed that local muscle contraction began in response to chemical stimulation of MNs (FIG. 16d). When we increased the glutamate concentration from 200 to 400 μM, the frequency of muscle twitching increased from 1.08 to 1.33 contractions sec^−1, while the average displacement decreased from 6.3±0 to 4.4±0.2 μm per twitch (FIG. 16e).

EBs containing MNs = assay: Neurite growth from embryoid bodies on 2D ECM-coated substrates; format: cell-based, mouse
Protocol: 4. Neurite Growth Measurements. After day 9 of differentiation, EBs were plated on either collagen I or Matrigel™ coated dishes in complete neural differentiation medium. […] Live samples were imaged on days 10-14 using an inverted fluorescent microscope for 2D cultures (IX81, Olympus) or a confocal microscope for 3D tissue rings (LSM710, Zeiss). The NeuronJ plug-in (ImageScience) for ImageJ was used to measure neurite growth distances (FIG. 17).
When allowed to adhere to natural ECM substrates such as collagen I13A and Matrigel™ (FIG. 13b and FIG. 19b), EBs containing MNs attached readily and extended neurites across the gels. Neurites grew 417.5±154.8 and 999.1+356.9 μm after 4 days of attachment (propagating at nearly linear rates of 88.6 and 264.8 μm day^−1) on collagen I and Matrigel™ surfaces, respectively (FIG. 13c). Similarly, EBs adhered to (and extended neurites across) the surface of 2D layers of differentiated C2C12s (FIG. 13d and FIG. 19c). After 5 days of co-culture, we identified clusters of post-synaptic acetylcholine receptors (visualized with fluorescently-conjugated α-BTX, which binds to a subunit of AChR) near the termination of neurite extensions on myotubes (FIG. 13e).

N[C@@H](CCC(=O)O)C(=O)O [glutamate, L-glutamic acid]
frequency of contraction ([1]; 200 μM glutamate (FIG. 16e, mean values)): 1.08 contractions/s
frequency of muscle twitching ([1]; 200 μM glutamate bath application): 1.08 contractions sec^−1
average displacement ([1]; 200 μM glutamate): 6.3±0 μm per twitch
frequency of contraction ([1]; 400 μM glutamate (FIG. 16e, mean values)): 1.33 contractions/s
frequency of muscle twitching ([1]; 400 μM glutamate bath application): 1.33 contractions sec^−1
average displacement ([1]; 400 μM glutamate): 4.4±0.2 μm per twitch
dependence of contraction frequency on concentration ([1]; chemical stimulation of MNs, 200 and 400 μM glutamate): frequency of contraction increasing with glutamate concentration

collagen I: natural ECM substrate; collagen I-coated dishes from Gibco
rate of neurite propagation (nearly linear) (EBs containing MNs; EBs attached to the coated surface, over 4 days): 88.6 μm day^−1
neurite growth (EBs containing MNs; after 4 days of attachment of EBs to the coated surface): 417.5±154.8 μm

(+)-tubocurarine chloride hydrochloride pentahydrate [curare]
frequency of contraction after addition ([1]; 25 μM curare (FIG. 16e)): 0 observed contractions
effect on glutamate-induced muscle contractions [1]: halted the contractions; also recorded: terminated the contractions
effect on glutamate-induced muscle contractions ([1]; listed as tubocurarine chloride (curare)): halted the contractions
